Assay results: ChEMBL document CHEMBL5465560, “Selectivity Literature for EUbOPEN Chemogenomic Library” (2024)

Legend:
[1] = target: Mitogen-activated protein kinase 11 (Homo sapiens) (UniProt Q15759); assay: Selectivity interaction (KinomeScan (DiscoverX)) EUB0000229b MAPK11; conditions: at 10 µM
[2] = target: T1, Serine/threonine-protein kinase Sgk1 (Homo sapiens) (UniProt O00141); assay: Selectivity interaction (Kinase panel (Z-LYTE Assay)) EUB0001632a SGK1; conditions: at 10 µM
T1 sequence (whole entry): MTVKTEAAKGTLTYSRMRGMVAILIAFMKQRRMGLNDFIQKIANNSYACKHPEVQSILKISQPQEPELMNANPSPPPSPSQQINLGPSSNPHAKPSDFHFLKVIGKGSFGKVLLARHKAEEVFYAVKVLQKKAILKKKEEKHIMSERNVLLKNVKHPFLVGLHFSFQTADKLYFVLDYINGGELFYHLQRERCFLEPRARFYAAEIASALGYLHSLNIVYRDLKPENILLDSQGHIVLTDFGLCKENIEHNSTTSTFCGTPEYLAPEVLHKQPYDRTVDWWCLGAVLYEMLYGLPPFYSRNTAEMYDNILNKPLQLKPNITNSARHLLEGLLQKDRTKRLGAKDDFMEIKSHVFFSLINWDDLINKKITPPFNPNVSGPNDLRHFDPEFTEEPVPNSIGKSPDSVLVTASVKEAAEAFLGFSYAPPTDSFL

[3] = target: T2, Serine/threonine-protein kinase Sgk3 (Homo sapiens) (UniProt Q96BR1); assay: Selectivity interaction (ActivX KiNativ screen (kinase selectivity in THP-1 cell lysates)) EUB0000639a SGK3; assay type: subcellular; conditions: lysate, at 5 µM
T2 sequence (whole entry): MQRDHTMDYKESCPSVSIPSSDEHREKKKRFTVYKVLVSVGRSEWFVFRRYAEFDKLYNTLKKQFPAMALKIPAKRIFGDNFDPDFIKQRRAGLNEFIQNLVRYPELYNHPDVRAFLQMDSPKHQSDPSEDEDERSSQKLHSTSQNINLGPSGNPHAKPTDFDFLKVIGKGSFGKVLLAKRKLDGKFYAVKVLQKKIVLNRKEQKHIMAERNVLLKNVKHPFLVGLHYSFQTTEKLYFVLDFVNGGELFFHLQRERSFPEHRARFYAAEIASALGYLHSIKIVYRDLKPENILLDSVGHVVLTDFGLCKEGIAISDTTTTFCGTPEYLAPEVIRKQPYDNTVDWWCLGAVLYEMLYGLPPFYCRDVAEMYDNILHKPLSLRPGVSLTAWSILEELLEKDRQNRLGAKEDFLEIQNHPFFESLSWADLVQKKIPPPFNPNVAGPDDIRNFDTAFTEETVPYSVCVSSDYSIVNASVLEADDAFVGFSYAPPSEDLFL

[4] = target: Epidermal growth factor receptor (Homo sapiens, UniProt P00533); assay: Selectivity interaction (Kinase panel (Invitrogen)) EUB0000639a EGFR; conditions: at 200 nM
[5] = target: T3, Phosphatidylinositol 5-phosphate 4-kinase type-2 beta (Homo sapiens) (UniProt P78356); assay: Selectivity interaction (KinomeScan (DiscoverX)) EUB0000607a PIP4K2B; conditions: at 10 µM
T3 sequence (whole entry): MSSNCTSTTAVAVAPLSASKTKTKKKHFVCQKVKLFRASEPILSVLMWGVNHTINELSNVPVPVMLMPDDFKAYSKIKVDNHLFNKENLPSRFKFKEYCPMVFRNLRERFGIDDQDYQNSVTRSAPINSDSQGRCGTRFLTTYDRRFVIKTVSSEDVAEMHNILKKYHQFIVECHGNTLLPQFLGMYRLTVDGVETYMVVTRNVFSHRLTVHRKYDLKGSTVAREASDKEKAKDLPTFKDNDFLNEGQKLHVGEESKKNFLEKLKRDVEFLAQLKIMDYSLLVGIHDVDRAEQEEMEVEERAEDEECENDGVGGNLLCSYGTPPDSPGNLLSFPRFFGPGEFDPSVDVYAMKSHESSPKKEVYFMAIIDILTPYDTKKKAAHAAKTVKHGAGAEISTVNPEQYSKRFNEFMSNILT

[6] = target: SRSF protein kinase 3 (Homo sapiens) (UniProt Q9UPE1); assay: Selectivity interaction (KinomeScan (DiscoverX)) EUB0000695a SRPK3; conditions: at 100 nM
[7] = target: Activin receptor type-2A (Homo sapiens) (UniProt P27037); assay: Selectivity interaction (KinomeScan (DiscoverX)) EUB0000618a ACVR2A; conditions: at 10 µM
[8] = target: T4, Ephrin type-B receptor 2 (Homo sapiens) (UniProt P29323); assay: Selectivity interaction (KinomeScan (DiscoverX)) EUB0000618a EPHB2; conditions: at 10 µM
T4 sequence (whole entry): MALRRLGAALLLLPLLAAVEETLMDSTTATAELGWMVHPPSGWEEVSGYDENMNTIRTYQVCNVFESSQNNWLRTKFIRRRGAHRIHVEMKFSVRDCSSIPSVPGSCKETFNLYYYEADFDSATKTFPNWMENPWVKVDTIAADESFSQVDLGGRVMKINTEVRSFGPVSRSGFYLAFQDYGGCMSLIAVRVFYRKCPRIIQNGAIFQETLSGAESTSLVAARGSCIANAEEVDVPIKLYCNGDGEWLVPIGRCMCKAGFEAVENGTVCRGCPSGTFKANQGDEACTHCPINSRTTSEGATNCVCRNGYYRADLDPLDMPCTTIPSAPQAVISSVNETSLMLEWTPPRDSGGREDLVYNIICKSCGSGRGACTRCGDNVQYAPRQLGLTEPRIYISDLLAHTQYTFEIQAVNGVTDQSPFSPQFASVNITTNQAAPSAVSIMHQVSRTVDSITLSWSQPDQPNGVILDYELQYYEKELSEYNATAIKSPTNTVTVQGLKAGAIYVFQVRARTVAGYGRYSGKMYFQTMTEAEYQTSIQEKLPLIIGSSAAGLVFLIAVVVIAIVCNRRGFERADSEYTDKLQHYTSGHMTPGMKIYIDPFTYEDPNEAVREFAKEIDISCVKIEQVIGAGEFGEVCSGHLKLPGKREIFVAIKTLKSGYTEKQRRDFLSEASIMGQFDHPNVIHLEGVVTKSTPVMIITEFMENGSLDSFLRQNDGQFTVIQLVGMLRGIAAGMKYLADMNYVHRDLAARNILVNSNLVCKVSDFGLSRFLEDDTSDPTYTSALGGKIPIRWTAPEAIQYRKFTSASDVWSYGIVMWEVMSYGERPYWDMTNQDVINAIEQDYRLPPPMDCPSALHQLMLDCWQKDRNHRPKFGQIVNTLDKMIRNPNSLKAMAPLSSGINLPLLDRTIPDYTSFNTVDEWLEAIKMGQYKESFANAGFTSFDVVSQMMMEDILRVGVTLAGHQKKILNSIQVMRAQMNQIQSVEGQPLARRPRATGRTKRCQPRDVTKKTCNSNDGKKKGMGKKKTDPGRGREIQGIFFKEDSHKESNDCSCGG

[9] = target: Homeodomain-interacting protein kinase 1 (Homo sapiens, UniProt Q86Z02); assay: Selectivity interaction (Ambit KINOMEscan and KiNATiv profiling in Jurkat cells) EUB0000090b HIPK1; assay type: cell-based; conditions: at 1 µM
[10] = target: Serine/threonine-protein kinase NIM1 (Homo sapiens, UniProt Q8IY84); assay: Selectivity interaction (Ambit KINOMEscan and KiNATiv profiling in Jurkat cells) EUB0000090b NIM1K; assay type: cell-based; conditions: at 1 µM
Chain of Serine/threonine-protein kinase NIM1 (Q8IY84 whole entry): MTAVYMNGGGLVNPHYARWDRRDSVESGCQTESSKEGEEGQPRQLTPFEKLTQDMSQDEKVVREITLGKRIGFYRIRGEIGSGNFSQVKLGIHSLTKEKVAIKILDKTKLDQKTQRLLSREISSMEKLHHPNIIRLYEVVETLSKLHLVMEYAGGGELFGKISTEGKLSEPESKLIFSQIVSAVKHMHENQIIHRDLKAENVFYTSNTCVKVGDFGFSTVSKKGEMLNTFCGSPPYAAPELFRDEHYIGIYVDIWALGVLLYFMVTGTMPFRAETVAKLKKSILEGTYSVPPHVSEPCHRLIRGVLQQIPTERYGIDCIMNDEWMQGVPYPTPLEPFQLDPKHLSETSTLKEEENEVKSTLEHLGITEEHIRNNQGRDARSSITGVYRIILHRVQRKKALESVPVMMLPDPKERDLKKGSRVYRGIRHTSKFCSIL

Chain of Activin receptor type-2A (Homo sapiens) (P27037 whole entry): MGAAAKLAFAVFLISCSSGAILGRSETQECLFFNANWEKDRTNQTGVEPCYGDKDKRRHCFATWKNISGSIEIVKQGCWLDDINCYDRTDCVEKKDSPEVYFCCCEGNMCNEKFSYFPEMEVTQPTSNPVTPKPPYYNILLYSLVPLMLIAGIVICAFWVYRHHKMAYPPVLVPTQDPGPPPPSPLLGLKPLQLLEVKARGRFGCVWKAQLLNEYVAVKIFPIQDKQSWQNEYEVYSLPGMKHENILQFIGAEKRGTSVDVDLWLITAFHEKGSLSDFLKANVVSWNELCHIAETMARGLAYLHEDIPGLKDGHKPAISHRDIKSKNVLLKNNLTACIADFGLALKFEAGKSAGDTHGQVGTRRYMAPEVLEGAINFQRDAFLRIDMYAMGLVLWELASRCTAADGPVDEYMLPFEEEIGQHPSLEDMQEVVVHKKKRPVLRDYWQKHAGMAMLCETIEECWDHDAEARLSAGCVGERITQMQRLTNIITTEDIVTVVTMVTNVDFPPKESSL
Chain of SRSF protein kinase 3 (Homo sapiens) (Q9UPE1 whole entry): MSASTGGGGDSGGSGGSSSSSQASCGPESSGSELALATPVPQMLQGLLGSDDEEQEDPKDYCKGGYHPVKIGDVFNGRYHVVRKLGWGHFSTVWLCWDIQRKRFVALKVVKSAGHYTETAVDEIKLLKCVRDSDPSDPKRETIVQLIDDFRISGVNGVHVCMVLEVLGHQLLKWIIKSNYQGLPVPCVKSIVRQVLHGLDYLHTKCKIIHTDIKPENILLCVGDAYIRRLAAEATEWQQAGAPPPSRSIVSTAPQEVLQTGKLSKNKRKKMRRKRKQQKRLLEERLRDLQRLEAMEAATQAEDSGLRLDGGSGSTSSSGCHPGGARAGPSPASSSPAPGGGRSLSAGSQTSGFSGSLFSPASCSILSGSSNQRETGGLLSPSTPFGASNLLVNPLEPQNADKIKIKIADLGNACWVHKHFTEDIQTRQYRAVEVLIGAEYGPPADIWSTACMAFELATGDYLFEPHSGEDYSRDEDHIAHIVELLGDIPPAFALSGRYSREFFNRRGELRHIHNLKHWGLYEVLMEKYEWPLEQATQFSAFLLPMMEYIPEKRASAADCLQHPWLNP
Chain of Mitogen-activated protein kinase 11 (Homo sapiens) (Q15759 whole entry): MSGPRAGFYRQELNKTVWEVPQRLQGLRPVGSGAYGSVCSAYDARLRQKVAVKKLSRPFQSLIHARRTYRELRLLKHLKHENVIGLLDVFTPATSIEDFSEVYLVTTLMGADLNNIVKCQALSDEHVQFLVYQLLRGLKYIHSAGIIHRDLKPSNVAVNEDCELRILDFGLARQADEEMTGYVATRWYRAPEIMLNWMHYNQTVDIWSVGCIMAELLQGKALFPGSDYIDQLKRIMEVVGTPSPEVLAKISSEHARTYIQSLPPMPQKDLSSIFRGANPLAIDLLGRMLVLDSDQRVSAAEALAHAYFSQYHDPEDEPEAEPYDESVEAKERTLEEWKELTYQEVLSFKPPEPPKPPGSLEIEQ
Chain of Homeodomain-interacting protein kinase 1 (Q86Z02 whole entry, looked up): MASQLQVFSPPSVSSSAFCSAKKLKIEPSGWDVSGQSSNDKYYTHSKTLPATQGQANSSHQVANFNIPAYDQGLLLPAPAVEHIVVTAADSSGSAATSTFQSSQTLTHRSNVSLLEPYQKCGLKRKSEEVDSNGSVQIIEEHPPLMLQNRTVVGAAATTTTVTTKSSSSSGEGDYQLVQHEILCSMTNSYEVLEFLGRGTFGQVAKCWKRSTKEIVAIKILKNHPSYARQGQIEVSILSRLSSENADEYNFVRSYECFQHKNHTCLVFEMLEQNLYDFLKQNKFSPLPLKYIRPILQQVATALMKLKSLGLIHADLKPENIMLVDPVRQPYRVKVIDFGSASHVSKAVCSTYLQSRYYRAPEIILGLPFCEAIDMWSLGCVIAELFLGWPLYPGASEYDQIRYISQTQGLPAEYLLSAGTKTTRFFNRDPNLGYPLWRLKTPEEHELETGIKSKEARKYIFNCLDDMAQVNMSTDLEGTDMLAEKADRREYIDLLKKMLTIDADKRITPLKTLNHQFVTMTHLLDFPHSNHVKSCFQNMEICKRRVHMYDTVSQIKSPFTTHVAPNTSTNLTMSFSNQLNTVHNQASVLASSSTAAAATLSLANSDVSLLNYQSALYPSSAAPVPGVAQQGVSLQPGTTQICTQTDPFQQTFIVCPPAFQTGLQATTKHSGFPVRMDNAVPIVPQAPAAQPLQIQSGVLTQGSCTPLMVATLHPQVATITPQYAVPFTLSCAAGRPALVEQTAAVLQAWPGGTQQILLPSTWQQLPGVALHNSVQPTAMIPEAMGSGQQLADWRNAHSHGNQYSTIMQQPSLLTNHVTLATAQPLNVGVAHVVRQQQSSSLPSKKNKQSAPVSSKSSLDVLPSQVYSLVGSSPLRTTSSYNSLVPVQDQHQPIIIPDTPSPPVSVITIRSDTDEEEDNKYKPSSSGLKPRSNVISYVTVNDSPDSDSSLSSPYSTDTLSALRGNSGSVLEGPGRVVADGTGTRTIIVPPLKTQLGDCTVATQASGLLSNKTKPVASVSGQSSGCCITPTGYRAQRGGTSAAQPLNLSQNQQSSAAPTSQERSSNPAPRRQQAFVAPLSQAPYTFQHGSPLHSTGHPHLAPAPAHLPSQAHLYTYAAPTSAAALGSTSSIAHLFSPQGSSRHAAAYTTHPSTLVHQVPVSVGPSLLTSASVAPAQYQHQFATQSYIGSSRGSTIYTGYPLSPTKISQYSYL
Chain of Epidermal growth factor receptor (P00533 whole entry): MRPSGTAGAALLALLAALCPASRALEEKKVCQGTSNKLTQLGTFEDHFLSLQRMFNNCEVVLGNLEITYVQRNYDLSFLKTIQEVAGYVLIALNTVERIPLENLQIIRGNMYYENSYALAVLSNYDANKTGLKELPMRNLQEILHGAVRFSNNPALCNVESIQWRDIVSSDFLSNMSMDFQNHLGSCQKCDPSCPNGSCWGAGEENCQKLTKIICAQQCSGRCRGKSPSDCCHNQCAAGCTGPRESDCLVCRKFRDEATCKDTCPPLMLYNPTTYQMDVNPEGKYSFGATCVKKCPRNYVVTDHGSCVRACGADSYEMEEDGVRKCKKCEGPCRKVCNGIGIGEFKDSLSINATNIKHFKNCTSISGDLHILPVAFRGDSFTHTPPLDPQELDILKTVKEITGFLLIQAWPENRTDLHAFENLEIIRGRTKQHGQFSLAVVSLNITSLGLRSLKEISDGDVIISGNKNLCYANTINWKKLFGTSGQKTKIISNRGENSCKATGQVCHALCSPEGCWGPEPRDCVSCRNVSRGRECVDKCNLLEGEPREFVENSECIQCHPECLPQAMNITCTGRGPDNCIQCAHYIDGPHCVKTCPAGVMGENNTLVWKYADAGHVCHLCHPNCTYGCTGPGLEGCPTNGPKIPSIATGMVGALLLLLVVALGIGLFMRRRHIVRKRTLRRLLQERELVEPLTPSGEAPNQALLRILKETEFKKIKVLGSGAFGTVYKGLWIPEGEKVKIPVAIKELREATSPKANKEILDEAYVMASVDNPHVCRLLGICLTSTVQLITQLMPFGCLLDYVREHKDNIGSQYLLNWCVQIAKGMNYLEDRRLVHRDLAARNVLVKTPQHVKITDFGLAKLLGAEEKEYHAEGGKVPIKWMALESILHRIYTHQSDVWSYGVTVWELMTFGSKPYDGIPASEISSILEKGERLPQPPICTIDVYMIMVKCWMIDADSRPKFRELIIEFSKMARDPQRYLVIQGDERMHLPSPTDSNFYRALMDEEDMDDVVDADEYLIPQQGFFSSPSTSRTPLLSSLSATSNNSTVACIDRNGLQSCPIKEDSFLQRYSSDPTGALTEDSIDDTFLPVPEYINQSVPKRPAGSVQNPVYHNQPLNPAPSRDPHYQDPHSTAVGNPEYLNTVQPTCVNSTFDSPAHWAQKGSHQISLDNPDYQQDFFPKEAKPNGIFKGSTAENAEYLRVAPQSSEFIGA

SMILES: COc1cc(N(C)c2ccnc3ccc(C(F)(F)F)cc23)cc(OC)c1OC
- % binding [1]: 90%

SMILES: Cn1cc(-n2cnc3c(NCc4nc5cc(Cl)c(Cl)cc5[nH]4)nc(N4CCOCC4)nc32)cn1
- % of control [2]: 28%

SMILES: CC[C@@H]1[C@H](F)C(=O)N[C@@H]1COc1nccc2cc(C(N)=O)c(OC)cc12 [ZIMLOVISERTIB]
- % of inhibition [3]: -1.4%
- % of inhibition [4]: 3.43%

SMILES: CNC(=O)Nc1ccc(-c2nc(N3CC4CCC(C3)O4)c3cnn(C4CCC5(CC4)OCCO5)c3n2)cc1
- % of control [5]: 100%

SMILES: Cc1cc(F)c(C(=O)Nc2cccc(-c3nncn3C(C)C)n2)cc1-n1cnc(C2CC2)c1
- % of control [6]: 100%

SMILES: O[C@H]1CC[C@H](Nc2ncc3nc(Nc4c(F)cc(F)cc4F)n([C@H]4CCOC4)c3n2)CC1
- % of control [7]: 92%
- % of control [8]: 72%

SMILES: CN(C)C/C=C/C(=O)Nc1ccc(C(=O)N2CCCC(Nc3ncc(Cl)c(-c4c[nH]c5ccccc45)n3)C2)cc1 (stereo not given)
- % of control [9]: 80%
- % of control [10]: 93%
